Laboratory results from patent US11773113B2, “Crystal forms of crisaborole in free form and preparation method and use thereof” (Anacor Pharmaceuticals, Inc., priority 2016, dated 2023).
Values after ≈ are worked out from the molar mass of the structure shown.

Experiments:
Assay type in all cases: physicochemical
[1] = Study of dynamic solubility (saturated solution, HPLC); conditions: for Solubility assessment: FaSSIF, FeSSIF, SGF and water; for solubility at 1 h / solubility at 24 h / solubility at 4 h: thermodynamic from solid
Text: The high performance liquid chromatography (HPLC) data were collected in an Agilent 1260, and the used detector was a diode array detector (DAD). The HPLC method as described in the invention has the following parameters: […]

[2] = Study of moisture absorption, dynamic vapor sorption (DVS) test; conditions: for Moisture absorption characteristic according to Chinese Pharmacopoeia (2015): 25° C.±1° C.; for Moisture absorption characteristic according to Chinese Pharmacopoeia (2015) / Weight increase of 80% relative humidity: 80% relative humidity; for Weight increase of 80% relative humidity / Weight increase of 95% relative humidity: DVS, 25° C.
Procedure: The dynamic vapor sorption (DVS) pattern as described in the invention was collected on an intrinsic dynamic vapor sorption meter as produced by Surface Measurement Systems Ltd. The dynamic vapor sorption method has the following parameters: Temperature: 25° C., Loading gas, flowing speed: N2, 200 ml/min, Variation in mass per time: 0.002%/minute, Relative humidity range: 0% RH-95% RH. […] The obtained results were shown in Table 13: With regard to the descriptions for the moisture absorption characteristic and the definition for the increased weight of moisture absorption (Guidelines for the Moisture Absorption Tests of Drugs in the Appendix of Chinese Pharmacopoeia (2015), Experimental conditions: 25° C.±1° C., 80% relative humidity): […]

[3] = Polarizing microscope (PLM) patterns; conditions: from PLM patterns FIG. 29-31
[4] = Study of particle size distribution (PSD, laser particle size analytic meter); conditions: for Particle size distribution (PSD pattern): from PSD patterns FIG. 26-28; for D10 / D50 (median size) / D90: volume distribution; for D10 / D50 (median size) / D90 / MV (average particle size as calculated in terms of the volume): dispersion medium Isopar G; for MV (average particle size as calculated in terms of the volume): wet process
Procedure: The particle size distribution (PSD) results as described in the invention were collected on a S3500-type laser particle size analytic meter as produced by Microtrac Company. The Microtrac S3500 is equipped with a SDC (Sample Delivery Controller) feeding system. The test was conducted via a wet process, and the dispersion medium as used in the test was Isopar G. The laser particle size analytic meter has the following parameters: [table]

[5] = Study of long-term and acceleration stabilities (XRPD); conditions: both 25° C./60% RH and 40° C./75% RH, 3 months
[6] = Study of mechanical stability (ground by hand for 5 minutes, XRPD); conditions: ground for 5 minutes by hand in a mortar

N#Cc1ccc(Oc2ccc3c(c2)COB3O)cc1 [Crystal form I, 4-[(1,3-dihydro-1-hydroxyl-2,1-benzoxaborolane-5-yl)oxy]benzonitrile]
Solubility ([1]; FaSSIF (pH = 6.5), 4 h): 7 µg/mL (≈ 27.9 µM) | Solubility assessment [1]: in line with medicinal requirements | Solubility ([1]; FeSSIF (pH = 5.0), 1 h): 44 µg/mL (≈ 175 µM) | Solubility ([1]; H2O, 4 h): 5 µg/mL (≈ 19.9 µM) | Solubility ([1]; SGF (pH = 1.8), 1 h): 11 µg/mL (≈ 43.8 µM) | Solubility ([1]; SGF (pH = 1.8), 24 h): 38 µg/mL (≈ 151 µM) | solubility at 1 h ([1]; fasted state simulated intestinal fluid (FaSSIF), pH 6.5, fassif, FaSSIF (pH = 6.5), 1 h): 6 µg/mL (≈ 23.9 µM) | solubility at 24 h ([1]; fasted state simulated intestinal fluid (FaSSIF), pH 6.5, fassif, FaSSIF (pH = 6.5), 24 h): 12 µg/mL (≈ 47.8 µM) | solubility at 4 h ([1]; fed state simulated intestinal fluid (FeSSIF), pH 5, fessif, FeSSIF (pH = 5.0), 4 h): 59 µg/mL (≈ 235 µM) | solubility at 24 h ([1]; fed state simulated intestinal fluid (FeSSIF), pH 5, fessif, FeSSIF (pH = 5.0), 24 h): 59 µg/mL (≈ 235 µM) | solubility at 4 h ([1]; simulated gastric fluid (SGF), pH 1.8, simulated gastric fluid, SGF (pH = 1.8), 4 h): 37 µg/mL (≈ 147 µM) | solubility at 1 h ([1]; water, H2O, 1 h): 4 µg/mL (≈ 15.9 µM) | solubility at 24 h ([1]; water, H2O, 24 h): 6 µg/mL (≈ 23.9 µM) | Moisture absorption characteristic according to Chinese Pharmacopoeia (2015) [2]: almost have no moisture absorption | Weight increase of 80% relative humidity [2]: 0.14% | Weight increase of 95% relative humidity [2]: 0.32% | Particle sizes of the particles (PLM pattern) [3]: homogeneous | Particle size distribution (PSD pattern) [4]: homogeneous | D10 [4]: 1.69 μm | D50 (median size) [4]: 5.52 μm | D90 [4]: 20.35 μm | MV (average particle size as calculated in terms of the volume) [4]: 9.62 μm | Stability of the crystal form on storage [5]: maintain their stability | Final crystal form [6]: Crystal form I | Final crystal form ([6]; listed as crystal form I): not changed

N#Cc1ccc(Oc2ccc3c(c2)COB3O)cc1 [Crystal form II, 4-[(1,3-dihydro-1-hydroxyl-2,1-benzoxaborolane-5-yl)oxy]benzonitrile]
Solubility ([1]; FaSSIF (pH = 6.5), 1 h): 11 µg/mL (≈ 43.8 µM) | Solubility ([1]; FaSSIF (pH = 6.5), 4 h): 5 µg/mL (≈ 19.9 µM) | Solubility ([1]; FaSSIF (pH = 6.5), 24 h): 8 µg/mL (≈ 31.9 µM) | Solubility assessment [1]: in line with medicinal requirements | Solubility ([1]; FeSSIF (pH = 5.0), 1 h): 18 µg/mL (≈ 71.7 µM) | Solubility ([1]; FeSSIF (pH = 5.0), 4 h): 49 µg/mL (≈ 195 µM) | Solubility ([1]; FeSSIF (pH = 5.0), 24 h): 55 µg/mL (≈ 219 µM) | Solubility ([1]; H2O, 1 h): 3 µg/mL (≈ 11.9 µM) | Solubility ([1]; H2O, 4 h): 1 µg/mL (≈ 3.98 µM) | Solubility ([1]; H2O, 24 h): 6 µg/mL (≈ 23.9 µM) | Solubility ([1]; SGF (pH = 1.8), 1 h): 10 µg/mL (≈ 39.8 µM) | Solubility ([1]; SGF (pH = 1.8), 4 h): 26 µg/mL (≈ 104 µM) | Solubility ([1]; SGF (pH = 1.8), 24 h): 15 µg/mL (≈ 59.7 µM) | Moisture absorption characteristic according to Chinese Pharmacopoeia (2015) [2]: almost have no moisture absorption | Weight increase of 80% relative humidity [2]: 0.13% | Weight increase of 95% relative humidity [2]: 0.32% | Particle sizes of the particles (PLM pattern) [3]: homogeneous | Particle size distribution (PSD pattern) [4]: homogeneous | D10 [4]: 8.24 μm | D50 (median size) [4]: 20.46 μm | D90 [4]: 40.42 μm | MV (average particle size as calculated in terms of the volume) [4]: 23.13 μm | Stability of the crystal form on storage [5]: maintain their stability

N#Cc1ccc(Oc2ccc3c(c2)COB3O)cc1 [Crystal form III, 4-[(1,3-dihydro-1-hydroxyl-2,1-benzoxaborolane-5-yl)oxy]benzonitrile]
Solubility ([1]; FaSSIF (pH = 6.5), 1 h): 8 µg/mL (≈ 31.9 µM) | Solubility ([1]; FaSSIF (pH = 6.5), 4 h): 10 µg/mL (≈ 39.8 µM) | Solubility ([1]; FaSSIF (pH = 6.5), 24 h): 12 µg/mL (≈ 47.8 µM) | Solubility assessment [1]: in line with medicinal requirements | Solubility ([1]; FeSSIF (pH = 5.0), 1 h): 25 µg/mL (≈ 99.6 µM) | Solubility ([1]; FeSSIF (pH = 5.0), 4 h): 67 µg/mL (≈ 267 µM) | Solubility ([1]; FeSSIF (pH = 5.0), 24 h): 74 µg/mL (≈ 295 µM) | Solubility ([1]; H2O, 1 h): 5 µg/mL (≈ 19.9 µM) | Solubility ([1]; H2O, 4 h): 4 µg/mL (≈ 15.9 µM) | Solubility ([1]; H2O, 24 h): 6 µg/mL (≈ 23.9 µM) | Solubility ([1]; SGF (pH = 1.8), 1 h): 33 µg/mL (≈ 131 µM) | Solubility ([1]; SGF (pH = 1.8), 4 h): 34 µg/mL (≈ 135 µM) | Solubility ([1]; SGF (pH = 1.8), 24 h): 40 µg/mL (≈ 159 µM) | Moisture absorption characteristic according to Chinese Pharmacopoeia (2015) [2]: almost have no moisture absorption | Weight increase of 80% relative humidity [2]: 0.09% | Weight increase of 95% relative humidity [2]: 0.15% | D10 [4]: 21.68 μm | D50 (median size) [4]: 163.0 μm | D90 [4]: 903.1 μm | MV (average particle size as calculated in terms of the volume) [4]: 289.0 μm | Stability of the crystal form on storage [5]: maintain their stability

N#Cc1ccc(Oc2ccc3c(c2)COB3O)cc1 [Crystal form IV, 4-[(1,3-dihydro-1-hydroxyl-2,1-benzoxaborolane-5-yl)oxy]benzonitrile]
Solubility ([1]; FaSSIF (pH = 6.5), 1 h): 9 µg/mL (≈ 35.8 µM) | Solubility ([1]; FaSSIF (pH = 6.5), 4 h): 17 µg/mL (≈ 67.7 µM) | Solubility ([1]; FaSSIF (pH = 6.5), 24 h): 13 µg/mL (≈ 51.8 µM) | Solubility assessment [1]: in line with medicinal requirements | Solubility ([1]; FeSSIF (pH = 5.0), 1 h): 62 µg/mL (≈ 247 µM) | Solubility ([1]; FeSSIF (pH = 5.0), 4 h): 61 µg/mL (≈ 243 µM) | Solubility ([1]; FeSSIF (pH = 5.0), 24 h): 56 µg/mL (≈ 223 µM) | Solubility ([1]; H2O, 4 h): 6 µg/mL (≈ 23.9 µM) | Solubility ([1]; H2O, 24 h): 4 µg/mL (≈ 15.9 µM) | Solubility ([1]; SGF (pH = 1.8), 1 h): 31 µg/mL (≈ 123 µM) | Solubility ([1]; SGF (pH = 1.8), 4 h): 27 µg/mL (≈ 108 µM) | Solubility ([1]; SGF (pH = 1.8), 24 h): 26 µg/mL (≈ 104 µM) | Moisture absorption characteristic according to Chinese Pharmacopoeia (2015) ([2]; listed as crystal IV): slight moisture absorption | Weight increase of 80% relative humidity [2]: 1.53% | Weight increase of 95% relative humidity [2]: 4.90% | Particle sizes of the particles (PLM pattern) [3]: homogeneous | Particle size distribution (PSD pattern) [4]: homogeneous | D10 [4]: 13.43 μm | D50 (median size) [4]: 33.68 μm | D90 [4]: 99.36 μm | MV (average particle size as calculated in terms of the volume) [4]: 52.95 μm | Final crystal form [6]: Crystal form IV | Final crystal form ([6]; listed as crystal form IV): not changed
